The values below come from patent EP0528583A1, “Isolation and structure of the cell growth inhibitory cycloheptapeptide axinastatin 1” (ARIZONA BOARD OF REGENTS, priority 1991, dated 1993).

Assay [1] concerns P388 lymphocytic leukemia. Put plainly: In vivo P388 (PS) lymphocytic leukemia life extension, NCI protocol. Also on record: species or system mice. The note with it: in vivo P388 lymphocytic leukemia system; dose not given. An excerpt: (§1) The isolation and purification methods chosen can be monitored at each step by performing in-vitro and/or in-vivo antitumor tests as described by R. I. Geran, N.H. Greenberg, M. M. MacDonald, A.M. Schumacher and B. S. Abbot in Cancer Chemotherapy Rep., Part 3, Vol 3: 1-103 (1972); and by Schmidt, J. M.; Pettit, G. R. in Experientia 1978, 34: 659-660. Such tests include the determination of the concentration of active material required to inhibit the growth of tumor cells in culture, (e.g. the concentration required to inhibit growth by 50 percent or the E.D.₅₀) and of the dose of active material required to prolong the life of mice bearing transplanted tumors ("life extension").

The test system of assay [2] is NCI murine P388 lymphocytic leukemia cell line. Put plainly: P388 (PS system) lymphocytic leukemia cell growth inhibition in culture, NCI protocol. The format is cell-based. To be noted: concentration required to inhibit growth of tumor cells in culture by 50 percent.
Text: as §1

Residues, ends and D or L forms follow the SMILES beside them.

`CC(C)[C@@H]1NC(=O)[C@H](Cc2ccccc2)NC(=O)[C@@H]2CCCN2C(=O)[C@H](CC(N)=O)NC(=O)[C@H](C(C)C)NC(=O)[C@@H]2CCCN2C(=O)[C@H](C(C)C)NC1=O` [axinastatin 1, cyclo (Asn-Pro-Phe-Val-Val-Pro-Val)] (cyclo(FVVPVNP)) displayed a life extension in assay [1] of 20%. Further, the “PS ED₅₀” value in assay [2] was 0.21 µg/mL.
